Among the data in ChEMBL document CHEMBL1155979, “Synthesis of gibberellin derivatives with anti-tumor bioactivities” (Bioorg Med Chem Lett, 2009) are IC50 and inhibition values, retold here.

Each structure is given as a SMILES string. pIC50: −log10 of the molar value. Converted amounts (≈) assume the structure as drawn. The source made the active and inactive calls. The rule behind the calls is not given here.

For assay [1], the system named is A549. In words: Cytotoxicity against human A549 cells by MTT assay. In kind it is functional, cell-based. For orientation: Tetrazolium dyes change colour on reduction, which living cells bring about.
The subject of assay [2] is MKN-28. Nature of the assay: Cytotoxicity against human MKN28 cells by MTT assay. The assay is classed as functional, cell-based.
Assay [3] deals with HT-29. Nature of the assay: Cytotoxicity against human HT-29 cells by MTT assay. In kind it is functional, cell-based.
The subject of assay [4] is HepG2. In words: Cytotoxicity against human HepG2 cells by MTT assay. In kind it is functional, cell-based.
In assay [5] the test system is HL-60. Nature of the assay: Cytotoxicity against human HL60 cells by MTT assay. The assay is classed as functional, cell-based.
Assay [6] is described as follows: Cytotoxicity against human BIU87 cells by MTT assay. In kind it is functional, cell-based.
Assay [7] concerns the target T1, DNA topoisomerase 1 (Homo sapiens) (UniProt P11387).
T1 sequence (whole entry): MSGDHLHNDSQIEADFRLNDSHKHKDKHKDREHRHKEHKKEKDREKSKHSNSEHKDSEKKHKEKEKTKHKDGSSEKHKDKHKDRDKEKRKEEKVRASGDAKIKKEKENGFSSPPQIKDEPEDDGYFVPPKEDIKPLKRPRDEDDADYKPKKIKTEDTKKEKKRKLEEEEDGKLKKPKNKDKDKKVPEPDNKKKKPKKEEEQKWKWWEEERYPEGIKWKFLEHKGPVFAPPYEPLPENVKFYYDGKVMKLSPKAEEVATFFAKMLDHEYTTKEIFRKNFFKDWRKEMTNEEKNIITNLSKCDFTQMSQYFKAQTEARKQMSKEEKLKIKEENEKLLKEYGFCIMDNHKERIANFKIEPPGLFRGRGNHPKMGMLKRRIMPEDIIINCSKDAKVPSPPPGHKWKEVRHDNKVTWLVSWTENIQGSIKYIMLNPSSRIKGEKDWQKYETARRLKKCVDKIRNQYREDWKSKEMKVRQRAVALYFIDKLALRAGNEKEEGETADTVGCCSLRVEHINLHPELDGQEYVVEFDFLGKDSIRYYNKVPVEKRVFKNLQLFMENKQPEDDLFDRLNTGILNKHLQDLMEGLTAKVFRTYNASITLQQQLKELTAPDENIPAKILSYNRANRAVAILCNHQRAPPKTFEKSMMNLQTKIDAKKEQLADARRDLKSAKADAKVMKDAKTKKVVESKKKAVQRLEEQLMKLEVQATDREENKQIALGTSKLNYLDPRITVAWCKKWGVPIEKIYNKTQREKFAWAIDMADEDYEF
Nature of the assay: Inhibition of topoisomerase I relaxation activity assessed as supercoiled pBR322 DNA.

The target of assay [8] is T1, DNA topoisomerase 1 (Homo sapiens). Nature of the assay: Inhibition of topoisomerase I relaxation activity assessed as supercoiled pBR322 DNA at 8 ug/ml.

On to `C=C1C(=O)[C@]23C[C@@]1(OC)CC[C@H]2[C@@]12C=CC(=O)[C@](C)(C(=O)O1)[C@H]2[C@@H]3C(=O)OC`, for which the pIC50 in assay [1] was 4.26; in assay [2] it was 5.47; in assay [3] it was 4.10; in assay [4], 4.36.
The like results for `CC[C@]1(O)C[C@H]2CN(CCc3c([nH]c4ccccc34)[C@@](C(=O)OC)(c3cc4c(cc3OC)N(C=O)[C@H]3[C@@](O)(C(=O)OC)[C@H](OC(C)=O)[C@]5(CC)C=CCN6CC[C@]43[C@@H]65)C2)C1` [VINCRISTINE] were, in that order, 5.60, 5.15, 5.28 and 5.43.
Take `C=C1C(=O)[C@]23C[C@@]1(OC(C)=O)CC[C@H]2[C@@]12C=C[C@H](OC(C)=O)[C@](C)(C(=O)O1)[C@H]2[C@@H]3C(=O)OCc1ccccc1`: the IC50 in assay [5] and in assay [6] was > 40 µg/mL in each case.
Take `C=C1C(=O)[C@]23C[C@@]1(O)CC[C@H]2[C@@]12C=CC(=O)[C@](C)(C(=O)O1)[C@H]2[C@@H]3C(=O)OC`: the negative-log IC50 (pIC50) in assay [1] was 4.04; in assay [2] it was 4.40; in assay [3] it was 4.18; in assay [4], 4.43.
On to `C=C1[C@H](O)[C@]23C[C@@]1(OC(C)=O)CC[C@H]2[C@@]12C=C[C@H](OC(C)=O)[C@](C)(C(=O)O1)[C@H]2[C@@H]3C(=O)OCc1ccccc1`, for which the concentration for half-maximal inhibition (IC50) in assay [5] and in assay [6] was > 100 µg/mL throughout.
`C=C1C(=O)[C@]23C[C@@]1(OCC)CC[C@H]2[C@@]12C=CC(=O)[C@](C)(C(=O)O1)[C@H]2[C@@H]3C(=O)OCc1ccccc1`: the pIC50 in assay [1] is 4.62; in assay [2], 4.78; in assay [3] it was 4.63; in assay [4], 4.53.
Turning to `C=C1C(=O)[C@]23C[C@@]1(F)CC[C@H]2[C@@]12C=CC(=O)[C@](C)(C(=O)O1)[C@H]2[C@@H]3C(=O)OC`, the pIC50 in assay [1] is 4.41; in assay [2] it was 5.39; in assay [3] it was 4.14; in assay [4], 4.39.
Turning to `C=C1C(=O)[C@]23C[C@@]1(Cl)CC[C@H]2[C@@]12C=CC(=O)[C@](C)(C(=O)O1)[C@H]2[C@@H]3C(=O)OC`, the negative-log IC50 (pIC50) was 4.22 in assay [1], 5.32 in assay [2], 5.54 in assay [3] and 4.40 in assay [4]. For the same compound, in assay [7], the inhibition entry was “Dose-dependent effect”. Moreover, the concentration for half-maximal inhibition (IC50) worked out at 6.5 µg/mL (≈ 16.6 µM) in assay [5] and 1 µg/mL (≈ 2.56 µM) in assay [6]. For the same compound, the inhibition entry in assay [8] is “Active”.
For `C=C1C[C@]23C[C@@]1(O)CC[C@H]2[C@@]12C=C[C@H](O)[C@](C)(C(=O)O1)[C@H]2[C@@H]3C(=O)OC`, the half-inhibitory concentration (IC50) in assay [5] and in assay [6] was > 100 µg/mL throughout.
Turning to `C=C1C(=O)[C@]23C[C@@]1(OCC)CC[C@H]2[C@@]12C=CC(=O)[C@](C)(C(=O)O1)[C@H]2[C@@H]3C(=O)OC`, the negative logarithm of the IC50 (pIC50) in assay [1] is 4.74; in assay [2] it was 4.08; in assay [3] it was 4.47; in assay [4], 3.92.
For `C=C1C(=O)[C@]23C[C@@]1(OC)CC[C@H]2[C@@]12C=CC(=O)[C@](C)(C(=O)O1)[C@H]2[C@@H]3C(=O)OCc1ccccc1`, in that order: 4.55, 6.10, 4.32 and 4.46.
For the compound `C=C1C[C@]23C[C@@]1(O)CC[C@H]2[C@@]12C=C[C@H](O)[C@](C)(C(=O)O1)[C@H]2[C@@H]3C(=O)O` [GIBBERELLIN GA3], the concentration for half-maximal inhibition (IC50) in assay [5] and in assay [6] was > 100 µg/mL throughout.
Turning to `C=C1C[C@]23C[C@@]1(OC(C)=O)CC[C@H]2[C@@]12C=C[C@H](OC(C)=O)[C@](C)(C(=O)O1)[C@H]2[C@@H]3C(=O)OCc1ccccc1`, the half-inhibitory concentration (IC50) in assay [5] and in assay [6] was > 100 µg/mL each time.
In the case of `C=C1[C@H](O)[C@]23C[C@@]1(O)CC[C@H]2[C@@]12C=C[C@H](O)[C@](C)(C(=O)O1)[C@H]2[C@@H]3C(=O)OCc1ccccc1`, the 50% inhibitory concentration (IC50) in assay [5] and in assay [6] was > 100 µg/mL in each case.
`C=C1C(=O)[C@]23C[C@@]1(F)CC[C@H]2[C@@]12C=CC(=O)[C@](C)(C(=O)O1)[C@H]2[C@@H]3C(=O)OCc1ccccc1`: the pIC50 is 4.19 in assay [1], 5.01 in assay [2], 4.23 in assay [3] and 4.36 in assay [4].
The like results for `C=C1C(=O)[C@]23C[C@@]1(I)CC[C@H]2[C@@]12C=CC(=O)[C@](C)(C(=O)O1)[C@H]2[C@@H]3C(=O)OCc1ccccc1` were, in that order, 4.34, 5.52, 4.30 and 4.16.
On to `C=C1[C@H](O)[C@]23C[C@@]1(O)CC[C@H]2[C@@]12C=C[C@H](O)[C@](C)(C(=O)O1)[C@H]2[C@@H]3C(=O)OC`, for which the IC50 in assay [5] and in assay [6] was > 100 µg/mL throughout.
With `C=C1C[C@]23C[C@@]1(O)CC[C@H]2[C@@]12C=CC(=O)[C@](C)(C(=O)O1)[C@H]2[C@@H]3C(=O)OCc1ccccc1`, the IC50 in assay [5] and in assay [6] was > 40 µg/mL throughout.
As for `C=C1C(=O)[C@]23C[C@@]1(I)CC[C@H]2[C@@]12C=CC(=O)[C@](C)(C(=O)O1)[C@H]2[C@@H]3C(=O)OC`, the pIC50 in assay [1] was 4.27; in assay [2], 5.17; in assay [3], 4.28; in assay [4] it was 4.06.
As to `C=C1C(=O)[C@]23C[C@@]1(Cl)CC[C@H]2[C@@]12C=CC(=O)[C@](C)(C(=O)O1)[C@H]2[C@@H]3C(=O)OCc1ccccc1`, the negative-log IC50 (pIC50) was 4.54 in assay [1], 5.17 in assay [2], 5.35 in assay [3] and 4.75 in assay [4]. In addition, the IC50 in assay [5] worked out at 2.7 µg/mL (≈ 5.78 µM); in assay [6], 0.5 µg/mL (≈ 1.07 µM).
In the case of `C=C1C(=O)[C@]23C[C@@]1(O)CC[C@H]2[C@@]12C=CC(=O)[C@](C)(C(=O)O1)[C@H]2[C@@H]3C(=O)OCc1ccccc1`, the pIC50 was 4.62 in assay [1], 5.60 in assay [2], 4.08 in assay [3] and 4.69 in assay [4].
As to `C=C1C[C@]23C[C@@]1(O)CC[C@H]2[C@@]12C=C[C@H](O)[C@](C)(C(=O)O1)[C@H]2[C@@H]3C(=O)OCc1ccccc1`, the half-inhibitory concentration (IC50) in assay [5] and in assay [6] was > 100 µg/mL throughout.

As a reminder, the pIC50 is −log10 of the IC50, conventionally taken in molar units. The term IC50 denotes the concentration at which inhibition is half-maximal. A lower IC50 goes with greater potency in that assay.
